# Tested on: Hepatitis C virus
# Experiment: Inhibition of HCV 1b NS5B polymerase
# Set-up: species or system Hepatitis C virus subtype 1b
row,IC50 [µM],SMILES
1,8.8,Oc1c(I)cc(I)cc1/C=N/c1ccc(Cl)cc1Cl
2,4.7,O=C(Nc1ccc(Cl)c(Cl)c1)c1cc(I)cc(I)c1O
3,46,O=C(Nc1ccccc1)c1cc(I)cc(I)c1O
4,> 200,COc1cc(Br)ccc1NC(=O)c1cc(Cl)cc(Cl)c1OC
5,131,Nc1c(Br)cc(Br)cc1C(=O)Nc1cccc(Br)c1
6,9,Cc1cc(NC(=O)c2cc(Cl)cc(Cl)c2O)ccc1Cl
7,98,Nc1c(Br)cc(Br)cc1C(=O)Nc1ccc(Br)cc1
8,102,Nc1c(Cl)cc(Cl)cc1C(=O)Nc1ccc(Cl)c(Cl)c1
9,33,O=C(Nc1ccc(F)cc1)c1cc(I)cc(I)c1O
10,8.6,O=C(Nc1ccc(Cl)cc1O)c1cc(I)cc(I)c1O
11,11,O=C(Nc1ccc(Cl)cc1)c1cc(I)cc(I)c1O
12,37,Cc1ccc(NC(=O)c2cc(I)cc(I)c2O)cc1
13,1.9,O=C(Nc1ccc(Nc2ccccc2)cc1)c1cc(I)cc(I)c1O

# Continued, molecule first:
row,SMILES,IC50 [µM]
1,Nc1ccc(NC(=O)c2cc(I)cc(I)c2O)cc1,30
2,O=C(Nc1cccc(Br)c1)c1cc(Br)cc(Br)c1O,6.9
3,COc1c(Cl)cc(Cl)cc1C(=O)Nc1ccc(Br)cc1,> 200
4,"O=C(Nc1ccc(Cl)c(Cl)c1)c1cc(Cl)cc(Cl)c1O [3,3',4',5-TETRACHLOROSALICYLANILIDE]",8.6
5,COc1ccc(NC(=O)c2cc(I)cc(I)c2O)cc1,46
6,Cc1cc(NC(=O)c2cc(Cl)cc(Cl)c2N)ccc1Cl,108
7,O=C(Nc1ccc(Br)cc1)c1cc(Br)cc(Br)c1O [TRIBROMSALAN],6.7
8,CN(C(=O)c1cc(Br)cc(Br)c1O)c1ccc(Cl)cc1,135
9,CN(C(=O)c1cc(I)cc(I)c1O)c1ccc(Cl)c(Cl)c1,> 200
10,O=C(Nc1ccc(O)cc1)c1cc(I)cc(I)c1O,54
11,O=C(Nc1ccc(Oc2ccccc2)cc1)c1cc(I)cc(I)c1O,5.6
12,O=C(Nc1ccc(Br)cc1)c1cc(I)cc(I)c1O,10
13,CC(=O)Oc1c(I)cc(I)cc1C(=O)Nc1ccc(Cl)c(Cl)c1,> 200

# Target: Genome polyprotein (Hepatitis C virus genotype 1b (isolate BK) (HCV), UniProt P26663)
# Experiment: Inhibition of HCV BK NS5B polymerase
# Chain of Genome polyprotein (P26663 2420-3010 limits assumed): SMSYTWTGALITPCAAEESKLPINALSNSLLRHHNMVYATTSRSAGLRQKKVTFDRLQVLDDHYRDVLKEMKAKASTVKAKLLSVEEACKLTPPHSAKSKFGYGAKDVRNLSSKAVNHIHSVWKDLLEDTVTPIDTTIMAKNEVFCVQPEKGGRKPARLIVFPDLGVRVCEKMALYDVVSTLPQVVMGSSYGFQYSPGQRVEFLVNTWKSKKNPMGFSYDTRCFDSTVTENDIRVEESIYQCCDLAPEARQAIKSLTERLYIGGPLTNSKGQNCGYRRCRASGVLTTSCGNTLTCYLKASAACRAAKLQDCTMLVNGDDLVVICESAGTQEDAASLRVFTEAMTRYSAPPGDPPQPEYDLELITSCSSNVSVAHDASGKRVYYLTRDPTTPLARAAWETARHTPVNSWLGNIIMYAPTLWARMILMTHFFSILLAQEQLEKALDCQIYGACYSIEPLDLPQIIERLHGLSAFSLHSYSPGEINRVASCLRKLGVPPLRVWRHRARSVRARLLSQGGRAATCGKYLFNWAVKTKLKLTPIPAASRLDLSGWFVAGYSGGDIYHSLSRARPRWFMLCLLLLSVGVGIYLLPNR
row,IC50 [µM],SMILES
1,8.6,O=C(Nc1ccc(Cl)c(Cl)c1)c1cc(I)cc(I)c1O

# Target: not listed separately
# Experiment: Inhibition of HCV 2a NS5B polymerase
# Set-up: species or system Hepatitis C virus subtype 2a
row,IC50 [µM],SMILES
1,16.2,O=C(Nc1ccc(Cl)c(Cl)c1)c1cc(I)cc(I)c1O

# Target: not listed separately
# Experiment: Inhibition of HCV 2b NS5B polymerase
# Set-up: species or system Hepatitis C virus subtype 2b
row,IC50 [µM],SMILES
1,17.3,O=C(Nc1ccc(Cl)c(Cl)c1)c1cc(I)cc(I)c1O

# Target: not listed separately
# Experiment: Inhibition of HCV 3a NS5B polymerase
# Set-up: species or system Hepatitis C virus subtype 3a
row,IC50 [µM],SMILES
1,14.3,O=C(Nc1ccc(Cl)c(Cl)c1)c1cc(I)cc(I)c1O

# Target: not listed separately
# Experiment: Inhibition of HCV 1a NS5B polymerase
# Set-up: species or system Hepatitis C virus subtype 1a
row,IC50 [µM],SMILES
1,5.7,O=C(Nc1ccc(Cl)c(Cl)c1)c1cc(I)cc(I)c1O
